Laboratory results as given in patent publication US20010051167A1, “USE OF 17-ALPHA-ESTRADIOL FOR THE TREATMENT OF AGED OR SUNDAMAGED SKIN AND/OR SKIN ATROPHY” (priority 1997, published 2001).

How the values were obtained:
[1] = tested on: UV-photodamaged dorsal trunk skin of albino hairless mice (Skh-1); test: Dermal repair zone depth in UV-photodamaged hairless mouse skin after topical treatment; format: in vivo
Description: In one method, a deficit in connective tissue synthesis is induced by long-term exposure of mouse skin to ultraviolet (UV) radiation. […] The repair can be visualized as a region of new connective tissue which forms as a subepidermal band in the papillary dermis after topical retinoid treatment (Kligman LH, Chapter 10: Animal Models of Photodamage and Its Treatment, pp. 136-156, In: Photodamage, edited by B. A. Gilchrest, 1995, Blackwell Science, Cambridge, Mass.). The old malformed elastotic tissue, produced during UV exposure, is compressed by the retinoid-induced new connective tissue zone.
Connective tissue photodamage was induced in albino hairless mice (Skh-1) (six to eight weeks old) by exposure of dorsal trunk skin to UV from FS40 fluorescent tubes, three days per week (Monday, Wednesday, Friday) for ten weeks. The UV dose started with one minimal erythemal dose (MED) and was increased gradually to 4.5 MEDs by week 5 and then continued at 4.5 MEDs for five more weeks. At the beginning of week 11, mice were treated topically with 0.1 mL test material on the dorsal trunk skin, three times per week (Monday, Wednesday, Friday) for 6 to 10 weeks. At the end of treatment, dorsal skin was excised and placed in 10% buffered formalin. The specimens were embedded, sectioned and stained with Luna's aldehyde fuchsin for elastic fibers. The dermal repair zone, defined as the area from the epidermal-dermal junction to the top of the compressed elastotic material, was quantified by measuring the depth of the zones with an image analyzer. […]

[2] = tested on: skin of albino hairless mice (Skh-1); test: Estrogen-induced thickening of the skin (double skin-fold thickness); format: in vivo, mouse; settings: Example 4, 3 days of topical treatment
Method: In the second method, topical estrogens increase the thickness of the entire skin by enhancing its water content. This is due to estrogen-stimulated increases in hyaluronic acid, which is a biomolecule that has an avid water binding capacity (Grosman et al. Acta Pharmacol. Toxicol., 1971, Vol. 30, pp. 458-464). Estrogen-induced thickening of the skin was assessed in albino hairless mice (Skh-1). The skin is topically treated for 3 days with 0.1 mL test material. The next day after the last dose, double skin-fold thickness is measured with an engineer's vernier calipers. This example compares the effects of 17-α-Estradiol and 17-β-Estradiol on skin thickening after 3 days of topical treatment.

[3] = tested on: epidermis of albino hairless mice (Skh-1); test: Thickness of the epidermis after 10 weeks of topical treatment; format: in vivo, mouse
[4] = tested on: markers of reproductive function; settings: humans; administered subcutaneously; cited from earlier work
[5] = Example 2, topical dose 0.1%, 10 Weeks
[6] = Example 3, topical dose 0.01%, 10 weeks

C[C@]12CC[C@@H]3c4ccc(O)cc4CC[C@H]3[C@@H]1CC[C@@H]2O [17-β-estradiol]
Repair Zone Depth (μm) ± SE ([1]; Example 1, topical dose 0.01%, 10 weeks, 0.1 mL three times per week): 57.4 ± 6.1 μm | Repair Zone Depth (μm) ± SE ([1]; Example 2, topical dose 0.1%, 6 Weeks): 46.3 ± 0.9 μm | Repair Zone Depth (μm) ± SE [1, 5]: 38.7 ± 2.5 μm | Repair Zone Depth (μm) ± SE ([1]; Example 3, topical dose 0.005%, 10 weeks): 45.2 ± 3.1 μm | Repair Zone Depth (μm) ± SE [1, 6]: 53.4 ± 2.1 μm | Repair Zone Depth (μm) ± SE ([1]; Example 3, topical dose 0.1%, 10 weeks): 68.2 ± 6.0 μm | Skin-Fold Thickness (mm) ± SE ([2]; topical dose 0.001%): 1.25 ± 0.08 mm | Skin-Fold Thickness (mm) ± SE ([2]; topical dose 0.01%): 1.62 ± 0.11 mm | Skin-Fold Thickness (mm) ± SE ([2]; topical dose 0.1%): 1.5 ± 0.13 mm | Epidermal Thickness (μm) ± SE ([3]; Example 5, topical dose 0.005%): 32.0 ± 1.2 μm | Epidermal Thickness (μm) ± SE ([3]; Example 5, topical dose 0.01%): 28.3 ± 1.8 μm | Epidermal Thickness (μm) ± SE ([3]; Example 5, topical dose 0.1%): 48.1 ± 2.9 μm

CC1=C(/C=C/C(C)=C/C=C/C(C)=C/C(=O)O)C(C)(C)CCC1 [All-trans-retinoic acid]
Repair Zone Depth (μm) ± SE ([1]; Example 1, topical dose 0.03%, 10 weeks, 0.1 mL three times per week): 72.0 ± 2.6 μm | Repair Zone Depth (μm) ± SE ([1]; Example 2, topical dose 0.03%, 6 Weeks): 44.5 ± 3.9 μm | Repair Zone Depth (μm) ± SE ([1]; Example 2, topical dose 0.03%, 10 Weeks): 59.0 ± 2.3 μm | Repair Zone Depth (μm) ± SE ([1]; Example 3, topical dose 0.03%, 10 weeks): 72.0 ± 3.3 μm | Epidermal Thickness (μm) ± SE ([3]; Example 5, topical dose 0.03%): 52.8 ± 3.6 μm

C[C@]12CCC3c4ccc(O)cc4CCC3C1CC[C@H]2O (stereo partly drawn) [17-α-estradiol]
Repair Zone Depth (μm) ± SE ([1]; Example 1, topical dose 0.50%, 10 weeks, 0.1 mL three times per week): 71.8 ± 3.0 μm | Repair Zone Depth (μm) ± SE ([1]; Example 2, topical dose 0.05%, 10 Weeks): 36.8 ± 2.4 μm | Repair Zone Depth (μm) ± SE [1, 5]: 44.3 ± 2.3 μm | Repair Zone Depth (μm) ± SE ([1]; Example 2, topical dose 0.5%, 6 Weeks): 44.6 ± 2.7 μm | Repair Zone Depth (μm) ± SE ([1]; Example 2, topical dose 0.5%, 10 Weeks): 51.6 ± 3.5 μm | Repair Zone Depth (μm) ± SE [1, 6]: 49.4 ± 3.7 μm | Repair Zone Depth (μm) ± SE ([1]; Example 3, topical dose 0.05%, 10 weeks): 34.3 ± 3.7 μm | Repair Zone Depth (μm) ± SE ([1]; Example 3, topical dose 0.5%, 10 weeks): 62.4 ± 4.2 μm | Skin-Fold Thickness (mm) ± SE ([2]; topical dose 0.01%): 1.16 ± 0.07 mm | Skin-Fold Thickness (mm) ± SE ([2]; topical dose 0.1%): 1.43 ± 0.06 mm | Skin-Fold Thickness (mm) ± SE ([2]; topical dose 0.5%): 1.52 ± 0.14 mm | Epidermal Thickness (μm) ± SE ([3]; Example 5, topical dose 0.05%): 29.3 ± 0.3 μm | Epidermal Thickness (μm) ± SE ([3]; Example 5, topical dose 0.1%): 37.3 ± 1.8 μm | Epidermal Thickness (μm) ± SE ([3]; Example 5, topical dose 0.5%): 42.9 ± 3.8 μm | biological activity on markers of reproductive function [4]: lacked biological activity
